Target: ATP-dependent translocase ABCB1 (Homo sapiens, UniProt P08183)
Test: TP_TRANSPORTER: increase in bodipy-FL-prazosin intracellular accumulation in MDR1-expressing NIH-3T3 cells
Assay type: functional, cell-based
Conditions: mouse, nih3t3

Sequence of ATP-dependent translocase ABCB1 (P08183 whole entry): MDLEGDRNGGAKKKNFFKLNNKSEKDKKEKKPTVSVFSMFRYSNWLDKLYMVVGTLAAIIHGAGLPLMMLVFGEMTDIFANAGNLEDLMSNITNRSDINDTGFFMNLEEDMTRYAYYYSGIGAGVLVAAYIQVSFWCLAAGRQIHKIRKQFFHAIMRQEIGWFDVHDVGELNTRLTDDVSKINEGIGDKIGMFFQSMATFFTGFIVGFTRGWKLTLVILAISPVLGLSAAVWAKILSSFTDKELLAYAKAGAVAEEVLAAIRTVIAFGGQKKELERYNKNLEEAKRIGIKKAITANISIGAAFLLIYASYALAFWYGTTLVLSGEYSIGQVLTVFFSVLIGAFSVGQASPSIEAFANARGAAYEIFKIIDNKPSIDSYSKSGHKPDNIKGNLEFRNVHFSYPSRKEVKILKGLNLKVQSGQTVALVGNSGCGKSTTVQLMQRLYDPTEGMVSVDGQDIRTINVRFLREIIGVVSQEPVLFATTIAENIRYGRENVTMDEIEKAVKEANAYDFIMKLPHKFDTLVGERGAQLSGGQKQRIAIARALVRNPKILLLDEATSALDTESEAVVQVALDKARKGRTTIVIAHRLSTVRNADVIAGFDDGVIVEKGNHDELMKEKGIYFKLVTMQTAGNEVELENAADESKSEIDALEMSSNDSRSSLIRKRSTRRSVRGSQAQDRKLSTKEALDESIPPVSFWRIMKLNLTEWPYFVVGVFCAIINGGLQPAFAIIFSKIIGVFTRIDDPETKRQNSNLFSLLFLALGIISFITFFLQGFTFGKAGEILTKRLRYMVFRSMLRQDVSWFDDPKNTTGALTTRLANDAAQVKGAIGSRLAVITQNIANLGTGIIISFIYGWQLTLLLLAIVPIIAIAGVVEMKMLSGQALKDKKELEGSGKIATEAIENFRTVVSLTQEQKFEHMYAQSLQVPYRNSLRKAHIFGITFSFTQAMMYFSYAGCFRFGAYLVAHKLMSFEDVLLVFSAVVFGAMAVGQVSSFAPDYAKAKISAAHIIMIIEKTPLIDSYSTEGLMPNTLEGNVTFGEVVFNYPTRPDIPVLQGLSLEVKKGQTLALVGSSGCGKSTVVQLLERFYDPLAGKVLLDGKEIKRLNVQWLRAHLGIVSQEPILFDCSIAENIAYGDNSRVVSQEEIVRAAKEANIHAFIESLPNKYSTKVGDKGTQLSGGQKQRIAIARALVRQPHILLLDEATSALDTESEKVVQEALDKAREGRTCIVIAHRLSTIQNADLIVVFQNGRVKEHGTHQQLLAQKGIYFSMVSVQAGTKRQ

Activity	Compound
inhibitor [+]	C/C(=C\CCC#C/C=C/C(C)C(O)/C(C)=C/CCc1cccc2ccccc12)C(=O)NCCOCCOCCOCCOCCOCCOCCOCCOCCOCCOCCOCCOCNC(=O)/C(C)=C/CCC#C/C=C/C(C)C(O)/C(C)=C/CCc1ccc2ccccc2c1 (stereo unspecified)
inhibitor [+]	C/C(=C\CCC#C/C=C/C(C)C(O)/C(C)=C/CCc1cccc2ccccc12)C(=O)NCCOCCOCCOCCOCCOCCOCCOCCOCNC(=O)/C(C)=C/CCC#C/C=C/C(C)C(O)/C(C)=C/CCc1ccc2ccccc2c1 (stereo unspecified)
inhibitor [+]	C/C(=C\CCC#C/C=C/C(C)C(O)/C(C)=C/CCc1ccc2ccccc2c1)C(=O)NCCOCCOCCOCCOCCOCCNC(=O)/C(C)=C/CCC#C/C=C/C(C)C(O)/C(C)=C/CCc1cccc2ccccc12 (stereo unspecified)
is not an inhibitor [-]	C/C(=C\CCC#C/C=C/C(C)C(O)/C(C)=C/CCc1cccc2ccccc12)C(=O)NCCOCCOCNC(=O)/C(C)=C/CCC#C/C=C/C(C)C(O)/C(C)=C/CCc1ccc2ccccc2c1 (stereo unspecified)
is not an inhibitor [-]	C/C(=C\CCC#C/C=C/C(C)C(O)/C(C)=C/CCc1ccc2ccccc2c1)C(=O)NCNC(=O)/C(C)=C/CCC#C/C=C/C(C)C(O)/C(C)=C/CCc1cccc2ccccc12 (stereo unspecified)
is not an inhibitor [-]	C/C(=C\CCC#C/C=C/C(C)C(O)/C(C)=C/CCc1cccc2ccccc12)C(=O)NCCOCCOCCOCCOCCOCCO (stereo unspecified) [STIPIAMIDE MONOMER]

Reference: ChEMBL document CHEMBL2073912, “Biochemical basis of polyvalency as a strategy for enhancing the efficacy of P-glycoprotein (ABCB1) modulators: stipiamide homodimers separated with defined-length spacers reverse drug efflux with greater efficacy” (Biochemistry, 2004)
